For three compounds, Activity and Flu intensity results are on record in ChEMBL document CHEMBL4130486, “Design, synthesis and immunological evaluation of novel amphiphilic desmuramyl peptides” (Eur J Med Chem, 2017).

Molecules are shown by their SMILES. Active and inactive are the calls of the source. The rule behind the calls is not given here.

Data set [1] concerns THP-1. Nature of the data set: Immunomodulatory activity in human THP1 cells assessed as increase in ICAM1 expression at 20 uM incubated for 21 hrs by immunostaining and flow cytometry. In kind it is functional, cell-based.
In data set [2] the test system is THP-1. Nature of the data set: Immunomodulatory activity in PMA-differentiated human THP1 cells assessed as increase in ICAM1 expression by measuring fluorescence intensity at 20 uM incubated for 21 hrs by immunostaining and flow cytometry (reference value: 602.95 No unit). In kind it is functional. (In general: Flow cytometry measures light scatter and fluorescence of single cells or particles in a stream.)

The subject of data set [3] is THP-1. Nature of the data set: Immunomodulatory activity in PMA-differentiated human THP1 cells assessed as increase in LPS-induced ICAM1 expression by measuring fluorescence intensity at 20 uM pre-incubated for 1 hr before LPS stimulation and further incubated for 20 hrs by immunostaining and flow cytometry relative to LPS alone. In kind it is functional, cell-based.

Data set [4] deals with THP-1. Nature of the data set: Immunomodulatory activity in PMA-differentiated human THP1 cells assessed as increase in TNFalpha production by measuring TNFalpha level at 15 uM incubated for 24 hrs by ELISA. The class given is functional. (In general: An ELISA detects its analyte on a solid surface through an enzyme-linked reagent.)
For data set [5], the system named is THP-1. Nature of the data set: Immunomodulatory activity in PMA-differentiated human THP1 cells assessed as increase in TNFalpha production at 30 uM incubated for 24 hrs by ELISA. In kind it is functional, cell-based.
For data set [6], the system named is THP-1. Nature of the data set: Immunomodulatory activity in human THP1 cells assessed as increase in LPS-induced ICAM1 expression at 1 to 32 uM uM incubated for 21 hrs by immunostaining and flow cytometry. In kind it is functional, cell-based.
Data set [7] deals with THP-1. Nature of the data set: Immunomodulatory activity in PMA-differentiated human THP1 cells assessed as increase in TNFalpha production at 1 to 30 uM incubated for 24 hrs by ELISA. In kind it is functional, cell-based.
In data set [8] the test system is THP-1. Nature of the data set: Immunomodulatory activity in human THP1 cells assessed as increase in LPS-induced ICAM1 expression at 16 uM uM incubated for 21 hrs by immunostaining and flow cytometry. The class given is functional.
Data set [9] concerns THP-1. Nature of the data set: Immunomodulatory activity in PMA-differentiated human THP1 cells assessed as increase in LPS-induced ICAM1 expression by measuring fluorescence intensity at 8 uM pre-incubated for 1 hr before LPS stimulation and further incubated for 20 hrs by immunostaining and flow cytometry relative to LPS alone. The class given is functional.
The test system of data set [10] is THP-1. Nature of the data set: Immunomodulatory activity in PMA-differentiated human THP1 cells assessed as increase in LPS-induced ICAM1 expression by measuring fluorescence intensity at <=4 uM pre-incubated for 1 hr before LPS stimulation and further incubated for 20 hrs by immunostaining and flow cytometry relative to LPS alone. In kind it is functional, cell-based.

The subject of data set [11] is THP-1. Nature of the data set: Immunomodulatory activity in PMA-differentiated human THP1 cells assessed as increase in LPS-induced ICAM1 expression by measuring fluorescence intensity at =>16 uM pre-incubated for 1 hr before LPS stimulation and further incubated for 20 hrs by immunostaining and flow cytometry relative to LPS alone. The class given is functional, cell-based.

In data set [12] the test system is THP-1. Nature of the data set: Toxicity in PMA-differentiated human THP1 cells assessed as cell death at 0.1 to 64 uM by trypan blue dye based assay. The note with it: thp-1, 64 µM.

As to `CCCCOC(=O)[C@@H](CCC(N)=O)NC(=O)[C@H](C)NC(=O)[C@@H](C)O[C@H]1[C@H](O)[C@@H](CO)OC(O)[C@@H]1NC(C)=O` (some centres not stated) [MURABUTIDE], the outcome in the data set with THP-1 [1] and with THP-1 [3] was Active. Moreover, in the data set on THP-1 [2], the Flu intensity came to 1436.05. Also, in the data set with THP-1 [4], the Activity came out at 2694 pg/mL. In the data set with THP-1 [5], the outcome was inactive.

`CCCCCCNC(=O)CC[C@@H](NC(=O)[C@H](C)NC(=O)COc1cccc(NCCCO)c1)C(N)=O`: the outcome in the data set with THP-1 [1], in the data set on THP-1 [6] and in the data set on THP-1 [7] was Active. For the same compound, the Flu intensity with THP-1 [2] is recorded as 885.76. In the data set with THP-1 [4], the Activity is 3622 pg/mL. In addition, the result with THP-1 [5] was inactive.

In the case of `CCCCCCNC(=O)CC[C@@H](NC(=O)[C@H](C)NC(=O)COc1cccc(N(CCCO)CCCO)c1)C(N)=O`, the result with THP-1 [1], with THP-1 [6], with THP-1 [10] and with THP-1 [7] was Active. Also, the Activity result in the data set on THP-1 [8] was “<=46%”; in the data set on THP-1 [9], “<=33%”; with THP-1 [4] it was 3606 pg/mL; with THP-1 [12], “Non-Toxic”. The Flu intensity in the data set with THP-1 [2] is 777.29. Besides, the outcome with THP-1 [11] and in the data set with THP-1 [5] was inactive.
